Tested on: Lactobacillus plantarum HAC03
Assay: in vitro Simulated Stomach Duodenum Passage (SSDP) probiotic survivability, lyophilized HAC03
Format: cell-based
Details: Table 3; for Artificial Bile Juice Survivability (%) / Artificial Bile Juice log CFU/mL / Artificial Gastric Juice Survivability (%) / Artificial Gastric Juice log CFU/mL: carbohydrate mixed with HAC03 lyophilizate
Experimental: The HAC03 strain was mixed with each of the single compositions and 1 mL of distilled water for 1 min. The compositions were formulated to have a final concentration of 0.1 M when dissolved in 1 ml of distilled water. Thereafter, 9 mL of distilled water adjusted to have a pH of 2.5 was added to each mixture. The pH was readjusted back to 2.5 in case of an increased pH due to the nature of some of the single ingredients (in order to not affect the survival of the probiotics). After adjusting the pH to 2.5, the tubes were incubated at 37° C. for 1 hour to apply the low-pH gastric stress condition. […] During the gastrointestinal tract assay, the samples were taken immediately, 1 hour, and […] after the incubation (t=0, 1, and 2). The probiotic survivability of each sample after gastric stress and bile stress was calculated by counting viable colonies.

OC[C@H]1O[C@H](O[C@H]2[C@H](O)[C@@H](O)C(O)O[C@@H]2CO)[C@H](O)[C@@H](O)[C@@H]1O (mixture of isomers) [Maltose]
survivability compared with fresh cells, in words: survivability similar to or higher than that of fresh cells | Artificial Bile Juice Survivability (%): 33.79% | Artificial Bile Juice log CFU/mL: 7.61 ± 0.13 log CFU/mL | Artificial Gastric Juice Survivability (%): 85.43% | Artificial Gastric Juice log CFU/mL: 8.02 ± 0.05 log CFU/mL

O=C[C@@H](O)[C@H](O)[C@H](O)CO [Arabinose]
Artificial Bile Juice Survivability (%): 9.45% | Artificial Bile Juice log CFU/mL: 7.02 ± 0.35 log CFU/mL | Artificial Gastric Juice Survivability (%): 17.78% | Artificial Gastric Juice log CFU/mL: 7.12 ± 0.67 log CFU/mL

O=C(CO)[C@@H](O)[C@H](O)[C@H](O)CO [Fructose]
survivability compared with fresh cells, in words: survivability similar to or higher than that of fresh cells | Artificial Bile Juice Survivability (%): 20.73% | Artificial Bile Juice log CFU/mL: 7.27 ± 0.48 log CFU/mL | Artificial Gastric Juice Survivability (%): 46.18% | Artificial Gastric Juice log CFU/mL: 7.67 ± 0.37 log CFU/mL

OC[C@@H](O)[C@@H](O)[C@H](O)[C@H](O)CO [Mannitol]
Artificial Bile Juice Survivability (%): 11.77% | Artificial Bile Juice log CFU/mL: 6.90 ± 0.44 log CFU/mL | Artificial Gastric Juice Survivability (%): 20.04% | Artificial Gastric Juice log CFU/mL: 7.18 ± 0.32 log CFU/mL

C[C@H](O)[C@H](O)[C@@H](O)[C@@H](O)C=O [Rhamnose]
Artificial Bile Juice Survivability (%): 18.25% | Artificial Bile Juice log CFU/mL: 7.53 ± 0.08 log CFU/mL | Artificial Gastric Juice Survivability (%): 40.75% | Artificial Gastric Juice log CFU/mL: 7.87 ± 0.10 log CFU/mL

OC[C@@H](O)[C@@H](O)[C@H](O)[C@@H](O)CO [Sorbitol]
survivability compared with fresh cells, in words: survivability similar to or higher than that of fresh cells | Artificial Bile Juice Survivability (%): 40.46% | Artificial Bile Juice log CFU/mL: 7.69 ± 0.09 log CFU/mL | Artificial Gastric Juice Survivability (%): 82.06% | Artificial Gastric Juice log CFU/mL: 8.00 ± 0.05 log CFU/mL

OC[C@H]1O[C@@](CO)(O[C@H]2O[C@H](CO)[C@@H](O)[C@H](O)[C@H]2O)[C@@H](O)[C@@H]1O [Sucrose]
survivability compared with fresh cells, in words: survivability similar to or higher than that of fresh cells | Artificial Bile Juice Survivability (%): 42.99% | Artificial Bile Juice log CFU/mL: 7.71 ± 0.13 log CFU/mL | Artificial Gastric Juice Survivability (%): 80.90% | Artificial Gastric Juice log CFU/mL: 7.99 ± 0.13 log CFU/mL

OC[C@H]1O[C@H](O[C@H]2O[C@H](CO)[C@@H](O)[C@H](O)[C@H]2O)[C@H](O)[C@@H](O)[C@@H]1O [Trehalose]
survivability compared with fresh cells, in words: survivability similar to or higher than that of fresh cells | Artificial Bile Juice Survivability (%): 28.10% | Artificial Bile Juice log CFU/mL: 7.36 ± 0.03 log CFU/mL | Artificial Gastric Juice Survivability (%): 54.75% | Artificial Gastric Juice log CFU/mL: 7.65 ± 0.05 log CFU/mL

O=C[C@H](O)[C@@H](O)[C@H](O)CO [Xylose]
Artificial Bile Juice Survivability (%): 8.47% | Artificial Bile Juice log CFU/mL: 6.97 ± 0.49 log CFU/mL | Artificial Gastric Juice Survivability (%): 27.36% | Artificial Gastric Juice log CFU/mL: 7.50 ± 0.25 log CFU/mL

Source: US20230346853A1, “Probiotic Lyophilizate Reactivation Composition for Improving Intestinal Survivability and Adhesion of Probiotics” (COSMAX NBT, INC., priority 2021, published 2023)
